According to paper PMC10424242, “Macrocyclic Peptidomimetic Plasmepsin X Inhibitors with Potent In Vitro and In Vivo Antimalarial Activity” (Journal of Medicinal Chemistry, 2023):

Experiments:
[1] = Liver microsomal metabolic stability; format: in vitro ADME, mouse
Method: Microsomal stability assays are performed as described elsewhere.[41] Test compounds and pooled mouse liver microsomes are incubated in potassium phosphate buffer in the presence of the cofactor NADPH at 37 °C. Reaction mixtures (700 μL) contain a final concentration of 5 μM test compound, 0.05% DMSO, 0.5 mg/mL microsomes, and ∼0.7–0.9 mM NADPH in 100 mM potassium phosphate buffer at pH 7.4. Reactions are terminated by the addition of 100 μL of the reaction mixture to 900 μL of acetonitrile after 0, 5, 15, 30, 45, and 60 min of incubation. Samples were centrifuged, and the resultant supernatant was analyzed by ultra-performance liquid chromatography–tandem mass spectrometry (UPLC-MS/MS). The amount of remaining compound is calculated and compared to the initial amount of test compound (zero time point). Verapamil is used as a positive control, and samples prepared without cofactor NADPH are used as a negative control (0 and 60 min). The in vitro metabolic stability parameters (half-life value (t1/2) and intrinsic clearance value (Clint)) are calculated from the slope of the Ln of concentration remaining vs the time curve.

[2] = test system: P. falciparum Pf3D7^0087/N9; experiment: In vivo efficacy against P. falciparum in the TAD PfalcHuMouse model
Method: Therapeutic efficacy studies were performed at TAD using a standardized humanized mouse model of P. falciparum malaria[31] with modifications.[34] […] The volume of injections was 1 and 0.7 mL for i.p. or i.v. inoculation, respectively.
The inoculum was obtained from peripheral blood of CO2-euthanized donor mice harboring 5–10% parasitemia.
Before drug administration, each infected mouse was randomly assigned to its corresponding treatment. […] The treatment was administered by oral gavage with 20G straight reusable feeding needles (Fine Science Tools GmbH) at 10 mL·kgbodyweight^–1 unless otherwise stated.
Parasitemia was measured in serial 2 μL of samples of tail blood by flow cytometry and expressed as the % of parasitized erythrocytes with respect to the total erythrocytes in circulation.
The clearance of parasitized erythrocytes from the peripheral blood of mice was assessed by measuring the parasite reduction ratio (PRR) calculated as the ratio between parasitemia at Day n + 2 divided by parasitemia at Day n for each individual of the study.
The parasiticidal effect of drugs in vivo was assessed by measuring the day of recrudescence (DoR) as described.[34] In short, DoR was defined as the day at which parasitemia after drug treatment reached the % parasitemia at treatment inception. Drug-treated mice were deemed cured if there was no detectable parasitemia 60 days after treatment.

[3] = test system: SUB1 p54 to p47 conversion (PMX activity); experiment: Washout assay, SUB1 maturation by Western blot; format: cell-based, P. falciparum; details: 20 nM ∼44 h, C2 1 μM for 1 h
Method: The schizont cultures lacking added RBCs were supplemented with compound C2, which blocks the discharge of exonemes, the parasite secretory organelles in which PMX and SUB1 are stored before egress. The schizonts without added RBCs were sampled for Western blot analysis, while the schizont cultures containing RBCs were examined by microscopy and flow cytometry after a further 4 h in culture to quantify schizont rupture and new ring formation.
Synchronous parasite cultures were cultured from ring to schizont stage (∼44 h) in the presence of DMSO alone (0.04% v/v; control) or macrocycle compounds (20 nM final concentration). Schizonts were isolated by Percoll enrichment (still in the presence of the test compound), then either immediately frozen or further incubated in the absence of the drug but in the presence of C2 (1 μM) for 1 h at 37°C in the absence of added RBCs or for 3.5 h in the presence of added RBCs. The schizonts without added RBCs were then frozen too, and all schizont samples were then thawed into CHAPS–urea extraction buffer, subjected to sodium dodecyl sulfate-polyacrylamide gel electrophoresis (SDS-PAGE), and analyzed by Western blot, probing with antibodies against SUB1 or RAP1. For schizonts cultured in the presence of added RBCs, ring formation was assessed in two ways: cultures were examined microscopically by Giemsa stain of thin films and were also fixed with glutaraldehyde and processed for quantification of ring formation by flow cytometry as described above.

[4] = Pharmacokinetics in mice (plasma, UPLC/MS/MS); format: in vivo; details: female, NMRI, mouse, po, p.os 50 mg/kg
Method: Animals were weighed on the day of the treatment (before treatment) to calculate the required amount of compound for the corresponding dose. For tolerability and PK studies, the mice were dosed via a peroral (PO) bolus administration (volume 10 mL/kg).
For the pharmacokinetics experiment, blood samples were collected in tubes containing heparin. […] Tubes were centrifuged at +4 °C 10,000g for 3 min. Plasma samples were collected and stored at −20 °C until analysis.
Concentrations of VAD259 in mouse plasma were measured by ultra-performance liquid chromatography–tandem mass spectrometry using Waters Acquity UPLC H-class chromatograph coupled to the Waters Xevo TQ-S micro mass spectrometer using the Waters Acquity UPLC BEH-C18 column (2.1 mm × 50 mm, 1.7 μm). Mobile phase A was 0.1% aqueous formic acid, and mobile phase B was acetonitrile.
The mass spectrometer was operated in positive electrospray ionization mode (ESI+), and data acquisition was performed in multiple reaction monitoring (MRM) modes with ionization parameters as follows: capillary energy of 3.0 kV, cone voltage of 25 V, and collision energy of 20 eV.
Blood plasma samples were processed using plasma protein precipitation. Then, 20 μL of plasma was mixed with 300 μL of acetonitrile/methanol (3:1/v:v) mixture, and the sample was centrifuged at 1000g for 10 min. The supernatant was further diluted 3 times with 0.1% aqueous formic acid and subjected to UPLC/MS/MS analysis.

cathepsin D (CatD) = cathepsin D (CatD) (Homo sapiens, UniProt P07339); experiment: FRET-based CatD inhibition assay (selectivity counter screen); format: biochemical
Method: A fluorescence resonance energy transfer (FRET)-based assay was performed to assess the ability of the compounds to inhibit PMIV, CatD, and BACE1. Serial dilutions of test compounds were dispensed in a white 96-well plate. […] The mixture was incubated for 20 min at 37 °C. […] IC50 values were calculated with GraphPad Prism 8.0 using the nonlinear regression, variable slope (four parameters). Compounds were tested in triplicate.

cathepsin D (CatD), sequence (P07339 65-412): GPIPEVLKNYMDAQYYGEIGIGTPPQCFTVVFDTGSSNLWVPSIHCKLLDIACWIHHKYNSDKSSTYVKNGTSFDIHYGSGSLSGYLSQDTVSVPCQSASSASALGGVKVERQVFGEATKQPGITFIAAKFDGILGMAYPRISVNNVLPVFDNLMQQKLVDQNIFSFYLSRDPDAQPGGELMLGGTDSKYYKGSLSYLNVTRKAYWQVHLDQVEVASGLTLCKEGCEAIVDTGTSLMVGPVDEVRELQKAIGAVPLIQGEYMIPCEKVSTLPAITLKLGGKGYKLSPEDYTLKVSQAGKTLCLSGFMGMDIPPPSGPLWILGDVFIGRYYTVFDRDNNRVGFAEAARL

## CCCN1CCCCCc2cccc(c2)C[C@@H]([C@H](O)CNC(C)(C)c2cccc(OC)c2)NC(=O)c2cccc(c2)C1=O [7k, (S)-4-((R)-1-Hydroxy-2-((2-(3-methoxyphenyl)propan-2-yl)amino)ethyl)-12-propyl-3,12-diaza-1,6(1,3)-dibenzenacyclotridecaphane-2,13-dione]
[1]; compared to the acyclic analogue 6a
  improvement of half-life in the microsomal stability test: 3 fold
[1]; pooled liver microsomes, pH 7.4, mouse liver microsomes, 5 μM
  half-life at 1 h, 5 μM: 16.9 min
[1]; pooled liver microsomes, pH 7.4, mouse liver microsomes, 5 μM, read-out: microsomal stability CL(int)
  microsomal CLint at 1 h, 5 μM: 81.9 µL/min/mg
[2]; 40 mg/kg p.o., UID, BID or TID
  clearance of parasitemia from peripheral blood: cleared parasitemia from the peripheral blood in a dose-dependent manner
[2]; chloroquine at 10 mg/kg for 2 days in the same system
  parasite clearance rate compared with chloroquine: comparable to those produced by chloroquine at 10 mg/kg for 2 days
[2]; comparable treatment regimens, chloroquine historical data
  parasite killing in vivo (DoR versus exposure) compared with chloroquine: as potent as chloroquine
[2]; day 3 of the assay, flow cytometry and microscopy
  distribution of parasite stages in peripheral blood: relative accumulation of circulating mature schizonts compared to untreated controls
[2]; three times a day for 4 days at 40 mg/kg, oral
  effect on parasite burden: eliminated P. falciparum from peripheral blood at a rate comparable to chloroquine single-dose administration for 2 days (10 mg/kg)
[3]
  SUB1 p54 to p47 conversion after washout: no conversion of SUB1 p54 to p47 occurred
[4]
  AUC(0-t) at 6 h: 218 ng·h/mL
  Cmax at 6 h: 64 ng/mL
  Tmax at 6 h: 60 min
  half-life at 6 h: 53 min
[4]; read-out: AUC0-inf_obs
  AUC(0-inf) at 6 h: 222 ng·h/mL
Cathepsin D (CatD)
  IC50: 330 ± 20 nM
